Results as given in article PMC11249646, “Small-Molecule Disruptors of the Interaction between Calcium- and Integrin-Binding Protein 1 and Integrin αIIbβ3 as Novel Antiplatelet Agents” (ACS Pharmacology & Translational Science, 2024).
pIC50: −log10 of the molar value. Read-outs that look alike come from different tables or passages of the source.

What was measured:
[1] = biological target: T1, GST-CIB1 : F-scrambled peptide (Homo sapiens, UniProt Q99828); test: FP scrambled-peptide counter screen, 1536-well format; format: binding; conditions: for Confirm? (counterscreen): YES/NO; for Curve Class (counterscreen) / COUNTERSCREEN Curve Class: qHTS curve class; for IC50: read-out: IC50 [μM] (counterscreen); for COUNTERSCREEN Confirm?: YES/NO call
T1 construct: made in house; host or cells: BL-21 plus RIL cells (E. coli)
T1 sequence (Q99828 1-191): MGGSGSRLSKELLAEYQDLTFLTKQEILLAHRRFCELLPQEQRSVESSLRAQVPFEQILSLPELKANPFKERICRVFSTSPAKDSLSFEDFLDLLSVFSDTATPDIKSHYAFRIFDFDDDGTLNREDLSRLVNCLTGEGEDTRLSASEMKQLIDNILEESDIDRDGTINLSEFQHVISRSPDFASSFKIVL

[2] = biological target: T2, CIB1 and αIIb interaction (CIB1-GST : F-αIIb peptide) (Homo sapiens, UniProt Q99828); test: FP assay, 1536-well qHTS format (primary and confirmatory screen); format: binding; conditions: for Curve Class (confirmatory screen) / CONFIRMATORY SCREEN Curve Class: qHTS curve class
T2 construct: made in house; host or cells: BL-21 plus RIL cells (E. coli)
T2 sequence (Q99828 1-191): T1 sequence (Q99828 1-191)

[3] = counterscreen, negative sign = inhibitory curve
[4] = confirmatory screen, negative sign = inhibitory curve
[5] = confirmatory screen, read-out: IC50 [μM] (confirmatory screen)
[6] = qHTS FP screen hits, Table S2, negative = inhibition
[7] = qHTS FP screen hits, Table S2, one class per curve where COUNT > 1, negative sign = inhibitory curve
[8] = qHTS FP screen hits, Table S2, read-out: IC50
[9] = Table S3, counterscreen, negative = inhibition
[10] = Table S3, confirmatory screen, a negative sign marks inhibitory curves
[11] = Table S3, confirmatory screen, negative = inhibition
[12] = qHTS primary screen hits, Table S2, negative = inhibition
[13] = qHTS primary screen hits, Table S2, negative sign = inhibitory curve, several classes where COUNT > 1
[14] = Table S3, counterscreen, a negative sign marks inhibitory curves
[15] = qHTS primary screen hits, Table S2, read-out: IC50
[16] = Table S3, confirmatory screen, YES/NO call
[17] = Table S3, confirmatory screen, read-out: IC50 [μM] (confirmatory screen)
[18] = scrambled-peptide counterscreen
[19] = confirmatory screen, YES/NO call
[20] = confirmatory screen, negative = inhibition
[21] = confirmatory screen, read-out: CONFIRMATORY SCREEN IC50

SMILES	Efficacy (%) (counterscreen) ([1]; counterscreen)	Curve Class (counterscreen) [1, 3]	Efficacy (%) (confirmatory screen) ([2]; confirmatory screen)	Confirm? (confirmatory screen) ([2]; confirmatory screen, YES/NO)	Curve Class (confirmatory screen) [2, 4]	IC50 [2, 5]	Efficacy (%) [2, 6]	Curve Class [2, 7]	pIC50 [2, 8]	Efficacy (%) (counterscreen) [1, 9]	Curve Class (confirmatory screen) [2, 10]	Efficacy (%) (confirmatory screen) [2, 11]	Efficacy (%) [2, 12]	Curve Class [2, 13]	IC50 ([1]; counterscreen)	pIC50 [2, 15]	other results
C=C(CC)C(=O)c1ccc(OCC(=O)O)c(Cl)c1Cl [NCGC00016260-13]	0%	4	-56%	YES	-2.4	44.7 µM	-28%	-1.2	5.89	–	–	–	–	–	–	–	Confirm? (counterscreen) ([1]; counterscreen): YES
Nc1ccc(O)c(C(=O)O)c1 [NCGC00016344-07]	–	–	–	–	–	–	–	–	–	154%	4	-27%	-58%	-2.2	–	–	–
CN(C(=O)CN(CCO)CC(=O)N(C)C(C)(C)Cc1ccccc1)C(C)(C)Cc1ccccc1 [NCGC00016382-07]	-33%	-2.4	-52%	YES	-3	79.4 µM	-59%	-3	4.55	–	–	–	–	–	70.8 µM	–	–
CCCCCCCCCCCCCCCC[N+](C)(C)CCN(Cc1ccc(OC)cc1)c1ncccn1.[Br-] [NCGC00016507-05]	–	–	–	–	–	–	–	–	–	100%	4	-36%	-71%	–	–	4.10	Curve Class (counterscreen) [1, 14]: 3; IC50 ([1]; Table S3, counterscreen): 89.1 µM; Curve Class ([2]; qHTS primary screen hits, Table S2, negative sign = inhibitory curve): -2.2
COc1ccc2[nH]c([S+]([O-])Cc3ncc(C)c(OC)c3C)nc2c1 (stereo not drawn) [NCGC00016925-10]	–	–	–	–	–	–	–	–	–	-57%	-1.2	-58%	-35%	-2.2	–	4.97	Curve Class (counterscreen) [1, 14]: -2.2; IC50 ([1]; Table S3, counterscreen): 35.5 µM; Confirm? (confirmatory screen) [2, 16]: YES; IC50 [2, 17]: 28.2 µM
O=c1cc(-c2ccccc2)oc2cc(O)c(O)c(O)c12 [NCGC00017236-08]	-64%	–	-112%	–	–	39.8 µM	–	–	–	–	–	–	-30%	–	39.8 µM	4.47	–
CN1C[C@H](CNC(=O)OCc2ccccc2)C[C@@H]2c3cccc4c3c(cn4C)C[C@H]21 [NCGC00017257-10]	-32%	-2.4	-126%	YES	-2.1	44.7 µM	-75%	–	4.44	–	–	–	–	–	63.1 µM	–	Confirm? (counterscreen) ([1]; counterscreen): YES
O=C(O)c1cc(O)c2c(c1)C(=O)c1cccc(O)c1C2=O [NCGC00018199-06]	-61%	-1.2	-66%	YES	-1.2	–	–	–	–	–	–	–	-32%	-2.2	–	–	–
CC(=O)Oc1cccc2c1C(=O)c1c(OC(C)=O)cc(C(=O)O)cc1C2=O [NCGC00018274-05]	–	–	–	–	–	–	–	–	–	–	–	–	-39%	-2.4	–	4.40	COUNTERSCREEN Efficacy (%) [1, 18]: -53%; COUNTERSCREEN Confirm? [1, 18]: YES; COUNTERSCREEN Curve Class [1, 18]: -2.4; pIC50 ([1]; scrambled-peptide counterscreen, read-out: COUNTERSCREEN IC50): 4.30; CONFIRMATORY SCREEN Confirm? [2, 19]: YES; CONFIRMATORY SCREEN Curve Class [2, 4]: -1.4; CONFIRMATORY SCREEN Efficacy (%) [2, 20]: -50%; pIC50 [2, 21]: 4.95
CC[C@@H](CO)NC(=O)[C@@H]1C=C2c3cccc4c3c(cn4C)C[C@H]2N(C)C1.O=C(O)/C=C\C(=O)O [NCGC00024027-06]	-73%	-3	-88%	YES	-2.2	44.7 µM	–	–	–	–	–	–	–	–	89.1 µM	–	–
CN(C)CCCn1cc(C2=C(c3c[nH]c4ccccc34)C(=O)NC2=O)c2ccccc21 [NCGC00024760-07]	-54%	-2.2	-63%	YES	-2.2	44.7 µM	-53%	-2.2	4.40	–	–	–	–	–	35.5 µM	–	–
CN1CCc2cccc3c2[C@H]1Cc1ccc(O)c(O)c1-3 [NCGC00025349-05]	–	–	–	–	–	–	–	–	–	-34%	4	-17%	-58%	-2.4	–	4.90	Curve Class (counterscreen) [1, 14]: 4
CCOC(=O)c1cc(-c2ccco2)nc2c1c(C)nn2CCC#N.O=C(O)C(F)(F)F [NCGC00037529-03]	-56%	-2.4	-61%	YES	-2.2	50.1 µM	-27%	–	4.40	–	–	–	–	–	56.2 µM	–	–
CCOC(=O)c1c(-c2ccc(C)o2)csc1NC(=O)CSc1nnnn1-c1ccccc1.O=C(O)C(F)(F)F [NCGC00041785-02]	-23%	4	-47%	YES	-2.2	39.8 µM	–	–	–	–	–	–	-58%	-1.2	–	4.55	Confirm? (counterscreen) ([1]; counterscreen): YES
CC(=O)NC(Cc1ccccc1)C(=O)O (stereo not drawn) [NCGC00042134-05]	–	–	–	–	–	–	-47%	-2.2	4.00	-35%	4	0%	–	–	–	–	Curve Class (counterscreen) [1, 14]: 4
CCOC(=O)c1nn(-c2ccc(OC)cc2)c(=O)c2c(N)scc12 [NCGC00053250-03]	-59%	-2.2	-69%	YES	-2.4	70.8 µM	-56%	-1.2	4.40	–	–	–	–	–	20 µM	–	–
COP(=S)(OC)SCN1C(=O)c2ccccc2C1=O [NCGC00080392-05]	-33%	-2.4	-50%	YES	-2.2	50.1 µM	-50%	-1.2	4.75	–	–	–	–	–	44.7 µM	–	–
O=C(O)c1cc(/N=N/c2ccc(S(=O)(=O)Nc3ccccn3)cc2)ccc1O [NCGC00090903-09]	–	–	–	–	–	–	–	–	–	-61%	-1.2	-64%	–	–	–	–	Curve Class (counterscreen) [1, 14]: -2.2; IC50 ([1]; Table S3, counterscreen): 39.8 µM; Confirm? (confirmatory screen) [2, 16]: YES; IC50 [2, 17]: 22.4 µM
CC(=O)[O][Hg][c]1ccccc1 [NCGC00091050-09]	–	–	–	–	–	–	–	–	–	145%	4	41%	-59%	-1.2	–	5.10	Curve Class (counterscreen) [1, 14]: 2.3
COc1cc([C@H]2Oc3cc([C@H]4Oc5cc(O)cc(O)c5C(=O)[C@@H]4O)ccc3O[C@@H]2CO)ccc1O [NCGC00091057-05]	–	–	–	–	–	–	–	–	–	–	–	–	–	–	–	–	COUNTERSCREEN Efficacy (%) ([1]; counterscreen): 0%; COUNTERSCREEN Curve Class ([1]; counterscreen): 4; CONFIRMATORY SCREEN Efficacy (%) ([2]; confirmatory screen): -30%; CONFIRMATORY SCREEN Curve Class ([2]; confirmatory screen): 4
Nc1ccc(O)c([N+](=O)[O-])c1 [NCGC00091261-03]	-105%	-2.1	-127%	YES	-1.1	50.1 µM	-59%	-2.2	3.95	–	–	–	–	–	63.1 µM	–	–
Oc1ccc(Cl)cc1Cc1cc(Cl)ccc1O [NCGC00091325-09]	-38%	-1.2	-77%	YES	-2.2	44.7 µM	-86%	-2.2	4.10	–	–	–	–	–	10 µM	–	–
CN(C)C(=S)SSC(=S)N(C)C [NCGC00091563-12]	–	–	–	–	–	–	-71%	-2.2	–	–	–	–	–	–	–	–	COUNTERSCREEN Efficacy (%) [1, 18]: 14%; COUNTERSCREEN Confirm? [1, 18]: YES; COUNTERSCREEN Curve Class [1, 18]: 4; IC50 ([2]; IC50 [μM]): 39.8 µM; CONFIRMATORY SCREEN Confirm? [2, 19]: YES; CONFIRMATORY SCREEN Curve Class [2, 4]: -1.2; CONFIRMATORY SCREEN Efficacy (%) [2, 20]: -67%; pIC50 [2, 21]: 5.15
